Measured values reported in patent publication US10294202B2, “Pyrrolidinones as herbicides” (FMC Corporation, priority 2013, dated 2019).

Key:
[1] = system: barnyardgrass; assay: Test A pre-/postemergence herbicide test; type: in vivo, Echinochloa crus-galli
Method in brief: (§1)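 Approximately 10 days after treatment in the greenhouse, plants were compared with untreated controls and given a 0–100 visual injury rating. Applications: preemergence directed soil spray; postemergence on 2–10 cm plants at the one- to two-leaf stage.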

[2] = system: kochia; assay: Test A pre-/postemergence herbicide test; type: in vivo, Kochia scoparia
Method in brief: as §1

[3] = system: ragweed; assay: Test A pre-/postemergence herbicide test; type: in vivo, Ambrosia elatior
Method in brief: as §1

[4] = system: ryegrass, Italian; assay: Test A pre-/postemergence herbicide test; type: in vivo, Lolium multiflorum
Method in brief: as §1

[5] = system: giant foxtail; assay: Test A pre-/postemergence herbicide test; type: in vivo, Setaria faberii
Method in brief: as §1

[6] = system: pigweed; assay: Test A pre-/postemergence herbicide test; type: in vivo, Amaranthus retroflexus
Method in brief: as §1

[7] = system: wheat; assay: Test A pre-/postemergence herbicide test; type: in vivo, Triticum aestivum; details: Postemergence
Method in brief: as §1

[8] = system: corn; assay: Test A pre-/postemergence herbicide test; type: in vivo, Zea mays; details: Postemergence
Method in brief: as §1

[9] = system: blackgrass; assay: Test A postemergence herbicide test; type: in vivo, Alopecurus myosuroides
Method in brief: (§2)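 Blackgrass and galium grown in pots of loam soil–sand blend, treated postemergence at 2–10 cm height, one- to two-leaf stage. Plants kept in greenhouse ~10 days, then visually rated for injury against untreated controls on a 0–100 scale (0 no effect, 100 complete control).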

[10] = system: galium; assay: Test A postemergence herbicide test; type: in vivo, Galium aparine
Method in brief: as §2

[11] = system: rice; assay: Test B flooded paddy test; type: in vivo, Oryza sativa; details: 500 g ai/ha, Flood; scale of 0 to 100 where 0 is no effect and 100 is complete control
Method in brief: (§3)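 Visual ratings from 0, meaning no effect, up to 100, meaning complete control, were made by comparison with untreated controls 13 to 15 days after treatment. Test compounds went straight into floodwater standing 3 cm over the soil of pots holding 2-leaf seedlings.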

[12] = system: sedge, umbrella; assay: Test B flooded paddy test; type: in vivo, Cyperus difformis; details: 500 g ai/ha, Flood; scale of 0 to 100 where 0 is no effect and 100 is complete control
Method in brief: as §3

[13] = system: ducksalad; assay: Test B flooded paddy test; type: in vivo, Heteranthera limosa; details: 500 g ai/ha, Flood; scale of 0 to 100 where 0 is no effect and 100 is complete control
Method in brief: as §3

[14] = system: barnyardgrass; assay: Test B flooded paddy test; type: in vivo, Echinochloa crus-galli; details: 500 g ai/ha, Flood; scale of 0 to 100 where 0 is no effect and 100 is complete control
Method in brief: as §3

[15] = Postemergence, 125 g ai/ha, visual rating on 0 to 100 scale (0 no effect, 100 complete control), approx. 10 days
[16] = Postemergence, 500 g ai/ha, 0 to 100 scale (0 no effect, 100 complete control)
[17] = Preemergence, 125 g ai/ha, 0 to 100 scale where 0 is no effect and 100 is complete control
[18] = preemergence, 500 g ai/ha, 0 to 100 scale, 0 is no effect and 100 is complete control
[19] = Preemergence, 500 g ai/ha, visual rating on 0 to 100 scale (0 no effect, 100 complete control)
[20] = 125 g ai/ha, visual rating on 0 to 100 scale (0 no effect, 100 complete control), approx. 10 days
[21] = 500 g ai/ha, 0 to 100 scale (0 no effect, 100 complete control)

| SMILES | Plant response rating, Barnyardgrass [1, 15] | Plant response rating, Barnyardgrass [1, 16] | Plant response rating, Barnyardgrass [1, 17] | Plant response rating, Kochia [2, 15] | Plant response rating, Kochia [2, 16] | Plant response rating, Kochia [2, 17] | Plant response rating, Ragweed [3, 15] | Plant response rating, Ragweed [3, 16] | Plant response rating, Ragweed [3, 17] | Plant response rating, Ryegrass, Italian [4, 15] | Plant response rating, Ryegrass, Italian [4, 16] | Plant response rating, Ryegrass, Italian [4, 17] | Ryegrass, Italian plant response rating [4, 19] | Plant response rating, Foxtail, Giant [5, 15] | Plant response rating, Foxtail, Giant [5, 16] | Plant response rating, Foxtail, Giant [5, 17] | Plant response rating, Pigweed [6, 15] | Plant response rating, Pigweed [6, 16] | Plant response rating, Pigweed [6, 17] | Plant response rating, Wheat [7, 20] | other results |
| --- | --- | --- | --- | --- | --- | --- | --- | --- | --- | --- | --- | --- | --- | --- | --- | --- | --- | --- | --- | --- | --- |
| O=C1NCC(c2ccc(Cl)s2)C1C(=O)Nc1ccccc1F (stereo not drawn) [Compound 292] | 50 | 70 | 70 | 0 | 0 | 30 | 0 | 0 | 0 | 0 | 0 | 0 | 0 | 50 | 60 | 50 | 0 | 0 | 0 | 0 | Plant response rating, Barnyardgrass [1, 18]: 80; Plant response rating, Kochia [2, 18]: 80; Plant response rating, Ragweed [3, 18]: 0; Plant response rating, Foxtail, Giant [5, 18]: 60; Plant response rating, Pigweed [6, 18]: 0; Plant response rating, Wheat [7, 21]: 0; Plant response rating, Corn [8, 20]: 0; Plant response rating, Corn [8, 21]: 0; Plant response rating, Blackgrass [9, 20]: 0; Plant response rating, Blackgrass [9, 21]: 0; Plant response rating, Galium [10, 20]: 10; Plant response rating, Galium [10, 21]: 20; Plant response rating, Rice [11]: 0; Plant response rating, Sedge, Umbrella [12]: 0; Plant response rating, Ducksalad [13]: 100; Plant response rating, Barnyardgrass [14]: 50 |
| O=C1NCC(c2cnn(CC(F)(F)F)c2)C1C(=O)Nc1ccccc1F (stereo not drawn) [Compound 298] | 0 | 0 | 0 | 0 | 0 | 0 | 0 | 0 | 0 | 0 | 0 | 0 | 0 | 0 | 0 | 0 | 0 | 0 | 0 | 0 | Plant response rating, Barnyardgrass [1, 18]: 0; Plant response rating, Kochia [2, 18]: 0; Plant response rating, Ragweed [3, 18]: 0; Plant response rating, Foxtail, Giant [5, 18]: 0; Plant response rating, Pigweed [6, 18]: 0; Plant response rating, Wheat [7, 21]: 0; Plant response rating, Corn [8, 20]: 0; Plant response rating, Corn [8, 21]: 0; Plant response rating, Blackgrass [9, 20]: 0; Plant response rating, Blackgrass [9, 21]: 0; Plant response rating, Galium [10, 20]: 0; Plant response rating, Galium [10, 21]: 0; Plant response rating, Rice [11]: 0; Plant response rating, Sedge, Umbrella [12]: 0; Plant response rating, Ducksalad [13]: 0; Plant response rating, Barnyardgrass [14]: 0 |
| O=C1NCC(c2cnn(CC(F)(F)F)c2)C1C(=O)Nc1ccccc1C(F)(F)F (stereo not drawn) [Compound 300] | 0 | 0 | 0 | 0 | 0 | 0 | 0 | 0 | 0 | 0 | 0 | 0 | 0 | 0 | 0 | 0 | 0 | 0 | 0 | 0 | Plant response rating, Barnyardgrass [1, 18]: 0; Plant response rating, Kochia [2, 18]: 0; Plant response rating, Ragweed [3, 18]: 0; Plant response rating, Foxtail, Giant [5, 18]: 0; Plant response rating, Pigweed [6, 18]: 0; Plant response rating, Wheat [7, 21]: 0; Plant response rating, Corn [8, 20]: 0; Plant response rating, Corn [8, 21]: 0; Plant response rating, Blackgrass [9, 20]: 0; Plant response rating, Blackgrass [9, 21]: 0; Plant response rating, Galium [10, 20]: 0; Plant response rating, Galium [10, 21]: 0; Plant response rating, Rice [11]: 0; Plant response rating, Sedge, Umbrella [12]: 0; Plant response rating, Ducksalad [13]: 0; Plant response rating, Barnyardgrass [14]: 0 |
| O=C1NCC(c2cccc(Br)c2)C1C(=O)Nc1ccccc1Cl (stereo not drawn) [Compound 311] | 60 | 80 | 70 | 0 | 0 | 0 | 0 | 0 | 0 | 0 | 0 | 0 | 0 | 60 | 70 | 80 | 0 | 0 | 0 | 0 | Barnyardgrass plant response rating [1, 19]: 80; Kochia plant response rating [2, 19]: 0; Ragweed plant response rating [3, 19]: 0; Foxtail, Giant plant response rating [5, 19]: 90; Pigweed plant response rating [6, 19]: 0; Plant response rating, Wheat [7, 21]: 0; Plant response rating, Corn [8, 20]: 0; Plant response rating, Corn [8, 21]: 0; Plant response rating, Blackgrass [9, 20]: 0; Plant response rating, Blackgrass [9, 21]: 30; Plant response rating, Galium [10, 20]: 0; Plant response rating, Galium [10, 21]: 0; Plant response rating, Rice [11]: 0; Plant response rating, Sedge, Umbrella [12]: 0; Plant response rating, Ducksalad [13]: 98; Plant response rating, Barnyardgrass [14]: 50 |
